# In patent US20080188483A1, “Compounds and Compositions as Protein Kinase Inhibitors” (IRM LLC, priority 2006, published 2008):
# Tests used:
# [1] = target: T1, T315I Bcr-abl (Ba/F3 cells) (Homo sapiens, UniProt P00519, T315I); test: Proliferation of Ba/F3 cells expressing mutant Bcr-abl T315I; type: cell-based
# T1 construct: expressed in transfected cells; host or cells: Ba/F3; the other entry of the earlier key: BCR (P11274, Breakpoint cluster region protein)
# Method: 2D-p210 cells are plated into 96 well TC plates at a density of 15,000 cells per well. 50 μL of two fold serial dilutions of the test compound (Cmax is 40 μM) are added to each well (STI571 is included as a positive control). After incubating the cells for 48 hours at 37° C., 5% CO2, 15 μL of MTT (Promega) is added to each well and the cells are incubated for an additional 5 hours. The optical density at 570 nm is quantified spectrophotometrically and IC50 values, the concentration of compound required for 50% inhibition, determined from a dose response curve.
# Compounds of the invention are tested for their antiproliferative effect on Ba/F3 cells expressing either wild type or the mutant forms of BCR-Abl (G250E, E255V, T315I, F317L, M351T) that confers resistance or diminished sensitivity to STI571. The antiproliferative effect of these compounds on the mutant-BCR-Abl expressing cells and on the non transformed cells were tested at 10, 3.3, 1.1 and 0.37 μM as described above (in media lacking IL3). The IC50 values of the compounds lacking toxicity on the untransformed cells were determined from the dose response curves obtained as describe above.
# Tie2 = target: T2, Tie2 (Homo sapiens, UniProt Q02763); test: Upstate KinaseProfiler radio-enzymatic filter binding assay; type: biochemical; conditions: at a concentration of 10 μM; read-out: percentage inhibition of Tie2
# T2 construct: purchased Upstate
# Method: (§1) Compounds of the invention are assessed for their ability to inhibit individual members of a panel of kinases (a partial, non-limiting list of kinases includes: Abl, BMX, BTK, CHK2, c-RAF, CSK, c-SRC, Fes, FGFR3, Flt3, IKKα, IKKβ, JNK2α2, Lck, Met, MKK4, MKK6, MST2, NEK2, p70S6K, PDGFRβ, PKA, PKBα, PKD2, Rsk1, SAPK2α, SAPK2β, SAPK3, SGK, Tie2 and/or TrkB. The compounds are tested in duplicates at a final concentration of 10 μM following this generic protocol. Note that the kinase buffer composition and the substrates vary for the different kinases included in the “Upstate KinaseProfiler™” panel. Kinase buffer (2.5 μL, 10×—containing MnCl2 when required), active kinase (0.001-0.01 Units; 2.5 μL), specific or Poly(Glu4-Tyr) peptide (5-500 μM or 0.01 mg/ml) in kinase buffer and kinase buffer (50 μM; 5 μL) are mixed in an eppendorf on ice. A Mg/ATP mix (10 μL; 67.5 (or 33.75) mM MgCl2, 450 (or 225) μM ATP and 1 μCi/μl [γ-^32P]-ATP (3000 Ci/mmol)) is added and the reaction is incubated at about 30° C. for about 10 minutes. The reaction mixture is spotted (20 μL) onto a 2 cm×2 cm P81 (phosphocellulose, for positively charged peptide substrates) or Whatman No. 1 (for Poly (Glu4-Tyr) peptide substrate) paper square. The assay squares are washed 4 times, for 5 minutes each, with 0.75% phosphoric acid and washed once with acetone for 5 minutes. The assay squares are transferred to a scintillation vial, 5 ml scintillation cocktail are added and ^32P incorporation (cpm) to the peptide substrate is quantified with a Beckman scintillation counter. Percentage inhibition is calculated for each reaction.
# SAPK2α = target: T3, SAPK2α (Homo sapiens, UniProt Q16539); test: as above; type: biochemical; conditions: at a concentration of 10 μM; read-out: percentage inhibition of SAPK2α
# T3 construct: purchased Upstate
# Method: as §1
# p70S6K = target: T4, p70S6K (Homo sapiens, UniProt P23443); test: as above; type: biochemical; conditions: at a concentration of 10 μM; read-out: percentage inhibition of p70S6K
# T4 construct: purchased Upstate
# Method: as §1
# BTK = target: T5, BTK (Homo sapiens, UniProt Q06187); test: as above; type: biochemical; conditions: at a concentration of 10 μM; read-out: percentage inhibition of BTK
# T5 construct: purchased Upstate
# Method: as §1
# CSK = target: T6, CSK (Homo sapiens, UniProt P41240); test: as above; type: biochemical; conditions: at a concentration of 10 μM; read-out: percentage inhibition of CSK
# T6 construct: purchased Upstate
# Method: as §1
# TrkB = target: T7, TrkB (Homo sapiens, UniProt Q16620); test: as above; type: biochemical; conditions: at a concentration of 10 μM; read-out: percentage inhibition of TrkB
# T7 construct: purchased Upstate
# Method: as §1
# c-SRC = target: T8, c-SRC (Homo sapiens, UniProt P12931); test: as above; type: biochemical; conditions: at a concentration of 10 μM; read-out: percentage inhibition of c-SRC
# T8 construct: purchased Upstate
# Method: as §1
# PDGFRβ = target: T9, PDGFRβ (Homo sapiens, UniProt P09619); test: as above; type: biochemical; conditions: at a concentration of 10 μM; read-out: percentage inhibition of PDGFRβ
# T9 construct: purchased Upstate
# Method: as §1
# Bcr-Abl = test: as above; type: biochemical; conditions: at a concentration of 10 μM
# Method: as §1
# MKK6 = target: T10, MKK6 (Homo sapiens, UniProt P52564); test: as above; type: biochemical; conditions: at a concentration of 10 μM; read-out: percentage inhibition of MKK6
# T10 construct: purchased Upstate
# Method: as §1
# FGFR3 = target: T11, FGFR3 (Homo sapiens, UniProt P22607); test: as above; type: biochemical; conditions: at a concentration of 10 μM; read-out: percentage inhibition of FGFR3
# T11 construct: purchased Upstate
# Method: as §1
# Lck = target: T12, Lck (Homo sapiens, UniProt P06239); test: as above; type: biochemical; conditions: at a concentration of 10 μM; read-out: percentage inhibition of Lck
# T12 construct: purchased Upstate
# Method: as §1
# Abl = target: T13, Abl (Homo sapiens, UniProt P00519); test: as above; type: biochemical; conditions: at a concentration of 10 μM; read-out: percentage inhibition of Abl
# T13 construct: purchased Upstate
# Method: as §1
# c-RAF = target: T14, c-RAF (Homo sapiens, UniProt P04049); test: as above; type: biochemical; conditions: at a concentration of 10 μM; read-out: percentage inhibition of c-RAF
# T14 construct: purchased Upstate
# Method: as §1
# Rsk1 = target: T15, Rsk1 (Homo sapiens, UniProt Q15418); test: as above; type: biochemical; conditions: at a concentration of 10 μM; read-out: percentage inhibition of Rsk1
# T15 construct: purchased Upstate
# Method: as §1
# Fes = target: T16, Fes (Homo sapiens, UniProt P07332); test: as above; type: biochemical; conditions: at a concentration of 10 μM; read-out: percentage inhibition of Fes
# T16 construct: purchased Upstate
# Method: as §1
# T9 sequence (P09619 33-1106): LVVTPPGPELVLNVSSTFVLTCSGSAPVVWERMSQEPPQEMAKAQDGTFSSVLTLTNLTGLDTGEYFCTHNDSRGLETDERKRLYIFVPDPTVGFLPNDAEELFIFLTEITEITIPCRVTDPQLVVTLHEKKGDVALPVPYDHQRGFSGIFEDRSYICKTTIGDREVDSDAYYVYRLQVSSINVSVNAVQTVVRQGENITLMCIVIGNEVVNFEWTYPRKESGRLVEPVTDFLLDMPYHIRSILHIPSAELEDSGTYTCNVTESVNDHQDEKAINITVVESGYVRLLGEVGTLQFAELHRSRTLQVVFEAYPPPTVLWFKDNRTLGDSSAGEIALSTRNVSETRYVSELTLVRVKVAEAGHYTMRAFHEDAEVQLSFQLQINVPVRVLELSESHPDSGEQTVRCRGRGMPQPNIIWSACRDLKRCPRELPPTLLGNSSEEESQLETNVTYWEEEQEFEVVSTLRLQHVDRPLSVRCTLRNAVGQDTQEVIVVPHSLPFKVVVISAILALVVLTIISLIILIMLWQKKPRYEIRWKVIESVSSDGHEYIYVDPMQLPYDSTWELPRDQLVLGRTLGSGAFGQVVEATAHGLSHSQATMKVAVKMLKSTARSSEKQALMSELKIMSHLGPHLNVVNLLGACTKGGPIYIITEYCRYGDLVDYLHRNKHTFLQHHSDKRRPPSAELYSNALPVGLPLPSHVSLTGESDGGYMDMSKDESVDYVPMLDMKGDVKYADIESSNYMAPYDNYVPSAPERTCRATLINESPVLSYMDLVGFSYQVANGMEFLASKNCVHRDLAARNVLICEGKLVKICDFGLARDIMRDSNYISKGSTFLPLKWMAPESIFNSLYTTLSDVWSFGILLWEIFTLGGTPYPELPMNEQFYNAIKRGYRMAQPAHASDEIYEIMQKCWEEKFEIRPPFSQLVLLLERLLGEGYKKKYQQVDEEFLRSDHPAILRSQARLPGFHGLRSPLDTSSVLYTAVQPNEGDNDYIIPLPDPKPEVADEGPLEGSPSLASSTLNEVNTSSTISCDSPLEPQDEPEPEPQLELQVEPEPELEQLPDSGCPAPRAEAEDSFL
# T2 sequence (Q02763 23-1124): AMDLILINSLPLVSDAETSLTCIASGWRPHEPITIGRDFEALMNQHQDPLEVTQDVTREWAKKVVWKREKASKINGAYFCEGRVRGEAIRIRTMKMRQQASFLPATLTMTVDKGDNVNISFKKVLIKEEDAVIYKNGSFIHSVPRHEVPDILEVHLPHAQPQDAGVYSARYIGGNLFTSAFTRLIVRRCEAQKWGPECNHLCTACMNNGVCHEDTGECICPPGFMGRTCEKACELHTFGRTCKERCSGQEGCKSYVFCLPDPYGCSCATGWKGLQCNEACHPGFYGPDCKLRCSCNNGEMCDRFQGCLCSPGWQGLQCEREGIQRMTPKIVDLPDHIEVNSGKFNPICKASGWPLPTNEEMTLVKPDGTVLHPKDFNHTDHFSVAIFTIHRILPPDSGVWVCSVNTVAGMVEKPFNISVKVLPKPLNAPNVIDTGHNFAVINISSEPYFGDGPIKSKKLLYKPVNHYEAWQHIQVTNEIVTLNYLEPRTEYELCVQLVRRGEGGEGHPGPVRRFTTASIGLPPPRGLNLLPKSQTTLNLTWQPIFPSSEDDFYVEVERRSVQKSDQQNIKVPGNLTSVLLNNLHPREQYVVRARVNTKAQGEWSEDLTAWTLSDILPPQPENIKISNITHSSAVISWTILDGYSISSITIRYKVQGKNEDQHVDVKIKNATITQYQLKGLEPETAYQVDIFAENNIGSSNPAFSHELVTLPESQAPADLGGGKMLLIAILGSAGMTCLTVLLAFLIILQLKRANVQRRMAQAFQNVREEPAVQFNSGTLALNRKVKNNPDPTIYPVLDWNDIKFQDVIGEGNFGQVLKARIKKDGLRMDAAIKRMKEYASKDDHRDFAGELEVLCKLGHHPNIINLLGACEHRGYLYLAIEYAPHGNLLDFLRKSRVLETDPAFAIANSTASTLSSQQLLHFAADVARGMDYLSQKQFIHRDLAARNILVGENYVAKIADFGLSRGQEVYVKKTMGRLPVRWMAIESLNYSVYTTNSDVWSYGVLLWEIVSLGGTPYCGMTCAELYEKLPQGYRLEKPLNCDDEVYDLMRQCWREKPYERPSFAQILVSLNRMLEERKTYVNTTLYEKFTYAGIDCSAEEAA
# T12 sequence (P06239 whole entry): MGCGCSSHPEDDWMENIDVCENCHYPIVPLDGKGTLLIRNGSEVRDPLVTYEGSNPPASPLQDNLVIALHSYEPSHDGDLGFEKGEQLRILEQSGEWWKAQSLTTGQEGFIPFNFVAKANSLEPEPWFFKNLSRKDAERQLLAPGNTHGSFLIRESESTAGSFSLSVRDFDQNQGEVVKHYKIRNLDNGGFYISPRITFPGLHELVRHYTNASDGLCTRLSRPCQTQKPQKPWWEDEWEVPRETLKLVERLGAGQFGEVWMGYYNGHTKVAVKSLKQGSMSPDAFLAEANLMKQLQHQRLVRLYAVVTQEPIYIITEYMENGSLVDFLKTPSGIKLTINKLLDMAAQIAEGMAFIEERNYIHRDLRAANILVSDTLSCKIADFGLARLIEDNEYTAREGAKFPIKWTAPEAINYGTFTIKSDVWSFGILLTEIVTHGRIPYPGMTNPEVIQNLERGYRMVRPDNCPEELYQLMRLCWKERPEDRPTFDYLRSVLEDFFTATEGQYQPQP
# T10 sequence (P52564 whole entry): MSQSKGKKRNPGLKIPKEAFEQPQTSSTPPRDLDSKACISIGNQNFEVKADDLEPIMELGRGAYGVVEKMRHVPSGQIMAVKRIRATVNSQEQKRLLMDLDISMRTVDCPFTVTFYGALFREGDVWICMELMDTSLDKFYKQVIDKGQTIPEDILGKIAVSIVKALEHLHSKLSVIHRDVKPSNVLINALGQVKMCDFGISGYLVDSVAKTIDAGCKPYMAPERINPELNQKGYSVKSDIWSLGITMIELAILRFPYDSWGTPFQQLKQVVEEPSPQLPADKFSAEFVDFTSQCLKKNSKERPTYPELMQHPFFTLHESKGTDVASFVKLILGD
# T8 sequence (P12931 whole entry): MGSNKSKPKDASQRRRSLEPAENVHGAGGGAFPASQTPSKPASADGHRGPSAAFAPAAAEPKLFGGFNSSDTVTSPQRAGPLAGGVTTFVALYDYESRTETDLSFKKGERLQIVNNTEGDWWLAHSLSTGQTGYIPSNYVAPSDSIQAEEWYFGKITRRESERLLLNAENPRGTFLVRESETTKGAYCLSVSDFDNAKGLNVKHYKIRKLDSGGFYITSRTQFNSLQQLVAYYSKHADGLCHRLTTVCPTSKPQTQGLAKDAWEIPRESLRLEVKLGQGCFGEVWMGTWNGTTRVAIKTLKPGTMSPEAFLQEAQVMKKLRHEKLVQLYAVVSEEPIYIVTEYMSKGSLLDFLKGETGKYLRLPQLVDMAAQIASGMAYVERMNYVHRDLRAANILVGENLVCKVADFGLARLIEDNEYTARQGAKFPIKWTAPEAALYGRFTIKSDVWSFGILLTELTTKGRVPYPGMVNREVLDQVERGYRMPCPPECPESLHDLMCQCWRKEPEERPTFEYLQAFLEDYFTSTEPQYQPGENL
# T15 sequence (Q15418 whole entry): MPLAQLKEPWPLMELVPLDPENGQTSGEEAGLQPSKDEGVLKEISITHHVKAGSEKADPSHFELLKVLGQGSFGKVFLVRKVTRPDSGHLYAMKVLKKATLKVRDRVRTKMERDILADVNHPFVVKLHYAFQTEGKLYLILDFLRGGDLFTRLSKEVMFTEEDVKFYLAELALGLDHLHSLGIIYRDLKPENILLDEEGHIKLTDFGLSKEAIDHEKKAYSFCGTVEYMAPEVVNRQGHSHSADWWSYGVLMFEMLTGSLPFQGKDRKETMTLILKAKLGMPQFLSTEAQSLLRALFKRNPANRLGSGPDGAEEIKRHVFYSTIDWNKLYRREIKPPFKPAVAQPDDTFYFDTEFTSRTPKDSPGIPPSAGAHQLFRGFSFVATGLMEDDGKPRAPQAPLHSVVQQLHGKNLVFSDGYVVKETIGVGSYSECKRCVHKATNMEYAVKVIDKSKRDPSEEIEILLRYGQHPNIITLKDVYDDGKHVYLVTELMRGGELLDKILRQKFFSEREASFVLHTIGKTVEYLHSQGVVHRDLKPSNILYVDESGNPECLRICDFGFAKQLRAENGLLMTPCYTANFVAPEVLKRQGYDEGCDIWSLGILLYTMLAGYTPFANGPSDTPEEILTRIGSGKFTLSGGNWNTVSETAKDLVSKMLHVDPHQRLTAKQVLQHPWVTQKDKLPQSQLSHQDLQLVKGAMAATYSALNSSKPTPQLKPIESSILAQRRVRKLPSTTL
# T5 sequence (Q06187 whole entry): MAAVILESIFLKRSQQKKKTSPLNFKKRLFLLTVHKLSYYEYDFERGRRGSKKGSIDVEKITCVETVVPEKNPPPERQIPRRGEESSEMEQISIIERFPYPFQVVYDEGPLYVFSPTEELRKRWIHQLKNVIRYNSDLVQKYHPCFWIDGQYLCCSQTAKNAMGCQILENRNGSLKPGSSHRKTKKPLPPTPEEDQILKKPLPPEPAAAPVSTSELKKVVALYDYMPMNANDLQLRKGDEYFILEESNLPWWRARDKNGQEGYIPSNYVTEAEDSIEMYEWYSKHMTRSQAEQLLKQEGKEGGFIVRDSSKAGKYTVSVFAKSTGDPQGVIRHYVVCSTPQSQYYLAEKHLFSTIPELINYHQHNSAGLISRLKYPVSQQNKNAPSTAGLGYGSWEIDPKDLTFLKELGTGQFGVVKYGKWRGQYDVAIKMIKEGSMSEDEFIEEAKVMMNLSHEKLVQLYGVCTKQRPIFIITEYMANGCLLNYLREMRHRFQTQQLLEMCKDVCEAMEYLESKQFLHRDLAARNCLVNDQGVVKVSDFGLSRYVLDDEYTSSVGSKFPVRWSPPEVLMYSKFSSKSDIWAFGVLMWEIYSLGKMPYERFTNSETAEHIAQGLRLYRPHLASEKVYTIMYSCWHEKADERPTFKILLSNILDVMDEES
smiles,measurement,setting,value
"Cc1cn(-c2cc(C(=O)Nc3ccc(C)c(Nc4nccn4-c4ncnc5[nH]ccc45)c3)cc(C(F)(F)F)c2)cn1 [Example 2, 3-(4-methyl-imidazol-1-yl)-N-{4-methyl-3-[1-(7H-pyrrolo[2,3-d]pyrimidin-4-yl)-1H-imidazol-2-ylamino]-phenyl}-5-trifluoromethyl-benzamide]",IC50,[1],63 nM
same,inhibition at 10 µM,Tie2,99%
same,inhibition at 10 µM,SAPK2α,97%
same,inhibition at 10 µM,p70S6K,86%
same,inhibition at 10 µM,BTK,99%
same,inhibition at 10 µM,CSK,97%
same,inhibition at 10 µM,TrkB,100%
same,inhibition at 10 µM,c-SRC,100%
same,inhibition at 10 µM,PDGFRβ,83%
same,percentage inhibition of Bcr-Abl,Bcr-Abl,99%
same,inhibition at 10 µM,MKK6,99%
same,inhibition at 10 µM,FGFR3,89%
same,inhibition at 10 µM,Lck,99%
same,inhibition at 10 µM,Abl,99%
same,inhibition at 10 µM,c-RAF,98%
same,inhibition at 10 µM,Rsk1,88%
same,inhibition at 10 µM,Fes,71%
